According to patent EP0438311A2, “Di- and tripeptide renin inhibitors” (MERCK & CO. INC., priority 1990, dated 1991):

Target: T1, human plasma renin (Homo sapiens, UniProt P00797)
T1 construct: from tissue; host or cells: human plasma
T1 sequence (P00797 67-406): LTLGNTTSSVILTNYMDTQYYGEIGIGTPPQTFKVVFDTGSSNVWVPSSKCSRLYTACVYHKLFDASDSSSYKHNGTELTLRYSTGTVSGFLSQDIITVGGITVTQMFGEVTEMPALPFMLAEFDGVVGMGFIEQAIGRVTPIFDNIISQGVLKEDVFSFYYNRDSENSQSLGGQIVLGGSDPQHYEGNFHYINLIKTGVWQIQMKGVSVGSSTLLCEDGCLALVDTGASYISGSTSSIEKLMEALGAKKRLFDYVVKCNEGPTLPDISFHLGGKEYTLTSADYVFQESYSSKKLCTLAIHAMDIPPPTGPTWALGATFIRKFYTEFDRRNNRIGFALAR
Assay: Inhibition of human plasma renin, in vitro method of Boger et al.
Type: biochemical
Conditions: J. Med. Chem. (1985) 28, 1779, read-out: IC₅₀
Description: Inhibition of human plasma renin was assayed using the in vitro method described by Boger, et. al., J. Med. Chem. (1985) 28, 1779. IC₅₀-1.3 nM.

Compound: CC(C)(C)OC(=O)N[C@@H](Cc1ccccc1)C(=O)N[C@@H](Cc1cnc[nH]1)C(=O)N[C@@H](CC1CCCCC1)[C@@H](O)[C@@H]1C[C@H]2COC[C@H](C3CCCC3)N2C1=O [Example 3D, Boc-Phe-His-(ACHP)-5(S)-Cyclopentyl-7-Oxa-9(S)-Indolizidin-3-One-2(S)-yl]
- IC50: 1 nM

Compound: CC(C)C[C@H]1COC[C@@H]2C[C@@H]([C@H](O)[C@H](CC3CCCCC3)NC(=O)[C@H](Cc3cnc[nH]3)NC(=O)[C@H](Cc3ccccc3)NC(=O)OC(C)(C)C)C(=O)N12 [Example 3C, Boc-Phe-His-(ACHP)-5(S)-(2-Methylpropyl)-7-Oxa-9(S)-Indolizidin-3-One-2(S)-yl]
- IC50: 2 nM

Compound: CCC[C@H]1COC[C@@H]2C[C@@H]([C@H](O)[C@H](CC3CCCCC3)NC(=O)[C@H](Cc3cnc[nH]3)NC(=O)[C@H](Cc3ccccc3)NC(=O)OC(C)(C)C)C(=O)N21 [Example 3E, Boc-Phe-His-(ACHP)-5(S)-Propyl-7-Oxa-9(S)-Indolizidin-3-One-2(S)-yl]
- IC50: 1 nM

Compound: C=CC[C@H]1COC[C@@H]2C[C@@H]([C@H](O)[C@H](CC3CCCCC3)NC(=O)[C@H](Cc3c[nH]cn3)NC(=O)[C@H](Cc3ccccc3)NC(=O)OC(C)(C)C)C(=O)N21 [Example 3A, Boc-Phe-His-(ACHP)-5(S)-Allyl-7-Oxa-9(S)-Indolizidin-3-One-2(S)-yl]
- IC50: 1.3 nM

Compound: Boc-Phe-His-(ACHP)-6(S)-Methyl-9(S)-Indolizidin-3-One-2(S)-yl [Example 3XX]
- IC50: 6.8 nM

Compound: C=C(C)C[C@H]1COC[C@@H]2C[C@@H]([C@H](O)[C@H](CC3CCCCC3)NC(=O)[C@H](Cc3cnc[nH]3)NC(=O)[C@H](Cc3ccccc3)NC(=O)OC(C)(C)C)C(=O)N12 [Example 3B, Boc-Phe-His-(ACHP)-5(S)-(2-Methallyl)-7-Oxa-9(S)-Indolizidin-3-One-2(S)-yl]
- IC50: 0.97 nM
